In patent US20240174647A1 (NEURON23, INC., priority 2022, published 2024):

Molecular target: wt human LRRK2, catalytic site (Homo sapiens (Human), UniProt Q5S007)
Assay: TR-FRET LanthaScreen Tb Kinase Activity Assay (LRRK2 kinase inhibition)
Assay type: biochemical
Details: 2 nM wt human LRRK2, 400 nM fluorescein-ERM (LRRKtide) peptide, 38 μM ATP, 120 minutes at room temperature
Method: The compounds in Table 1 were tested for their inhibitory effect on LRRK2 kinase according to the following procedures.
The protocol for basic TR-FRET LanthaScreen Tb Kinase Activity Assay inhibitor studies were as follows. LanthaScreen Kinase Activity Assays (ThermoFisher/USA) to evaluate inhibitors were performed by addition of 100 nL of test compound in corresponding DMSO dilutions/5 μL of kinase/fluorescein-ERM(LRRKtide) peptide mixture, 5 μL of ATP into 384 well small volume plates. After incubation for 120 minutes at room temperature, the detection reagents containing Tb-anti-pLRRKtide antibody were added to monitor phosphrylation level of peptide. Then, after 60 min minutes incubation at room temperature plates were read in Envision. Data analysis of emission ratios was according to LanthaScreen Tb Kinase Activity Assay protocol.
Kinase and assay components were adjusted to final concentrations according to the kit protocol. For LRRK2: 2 nM wt human LRRK2, catalytic site, catalytic site (ThermoFisher/USA), 400 nM peptide, 38 μM ATP in 1× Kinase Buffer A.
Basic protocol for TR-FRET LanthaScreen Tb Kinase Activity Assay inhibitor studies involved two steps: • Enzymatic step: Addition of 100 nL of test compound in corresponding DMSO dilutions, 5 μL of kinase/substrate mixture, 5 μL of ATP into 384 well small volume plates. Incubation for 120 minutes at room temperature. • Detection step: Addition of 10 μL EDTA & antibody, read plate after 60 minutes. Data analysis of emission ratios according to KinEASE assay protocol.
Kinase and assay components were adjusted to final concentrations according to the kit protocol.
In the table below, activity is provided as follows: +++=IC50 less than 50 nM; ++=IC50 between 50 nM and 200 nM; +=IC50>=200 nM

Chain of wt human LRRK2, catalytic site (Q5S007 1879-2138): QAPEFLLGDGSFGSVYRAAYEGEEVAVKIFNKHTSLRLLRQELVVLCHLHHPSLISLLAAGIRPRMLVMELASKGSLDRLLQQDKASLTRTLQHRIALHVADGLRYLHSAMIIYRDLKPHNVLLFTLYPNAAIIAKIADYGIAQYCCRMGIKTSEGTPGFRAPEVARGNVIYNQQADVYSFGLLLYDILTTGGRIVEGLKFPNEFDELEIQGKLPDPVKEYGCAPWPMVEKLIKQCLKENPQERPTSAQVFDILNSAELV

Compound | IC50
CNc1nc(Nc2ccc(C(F)(F)F)c3c2cnn3CC#N)ncc1C(F)(F)F [Example 80, 2-(4-((4-(methylamino)-5-(trifluoromethyl)pyrimidin-2-yl)amino)-7-(trifluoromethyl)-1H-indazol-1-yl)acetonitrile] | < 50 nM
CNc1nc(Nc2ccc(C3=CCOCC3)c3c2cnn3CC#N)ncc1C(F)(F)F [Example 83, 2-(7-(3,6-dihydro-2H-pyran-4-yl)-4-((4-(methylamino)-5-(trifluoromethyl)pyrimidin-2-yl)amino)-1H-indazol-1-yl)acetonitrile] | < 50 nM
COCCn1ncc2c(Nc3ncc(C(F)(F)F)c(NC(C)C)n3)cccc21 [Example 140, N^4-isopropyl-N^2-[1-(2-methoxyethyl)indazol-4-yl]-5-(trifluoromethyl)pyrimidine-2,4-diamine] | < 50 nM
CCNc1nc(Nc2cccc3c2cnn3CC(F)F)nc2[nH]cc(Cl)c12 [Example 147, 5-chloro-N^2-(1-(2,2-difluoroethyl)-1H-indazol-4-yl)-N^4-ethyl-7H-pyrrolo[2,3-d]pyrimidine-2,4-diamine] | < 50 nM
Cc1ccc(Nc2ncc(C(F)(F)F)c(NC3CC3)n2)c2cnn(CCS(C)(=O)=O)c12 [Example 174, N4-cyclopropyl-N2-(7-methyl-1-(2-(methylsulfonyl)ethyl)-1H-indazol-4-yl)-5-(trifluoromethyl)pyrimidine-2,4-diamine] | < 50 nM
CNc1nc(Nc2nn(C)c3ccccc23)ncc1C(F)(F)F [Example 67, N4-methyl-N2-(1-methyl-1H-indazol-3-yl)-5-(trifluoromethyl)pyrimidine-2,4-diamine] | ≥ 200 nM
CNc1nc(Nc2ccc3cnccn23)ncc1C(F)(F)F [Example 126, N^4-methyl-N^2-pyrrolo[1,2-a]pyrazin-6-yl-5-(trifluoromethyl)pyrimidine-2,4-diamine] | ≥ 200 nM
O=S(=O)(CCn1ncc2c(Nc3ncc(C(F)(F)F)c(NC4CC4)n3)cccc21)C1CC1 [Example 170, N^4-cyclopropyl-N^2-(1-(2-(cyclopropylsulfonyl)ethyl)-1H-indazol-4-yl)-5-(trifluoromethyl)pyrimidine-2,4-diamine] | < 50 nM
CNc1nc(Nc2ccc3cn[nH]c3c2C)ncc1C(F)(F)F [Example 5, N4-methyl-N2-(7-methyl-1H-indazol-6-yl)-5-(trifluoromethyl)pyrimidine-2,4-diamine] | < 50 nM
CNc1nc(Nc2ccc3c(Br)n[nH]c3c2)ncc1C(F)(F)F [Example 7, N2-(3-bromo-1H-indazol-6-yl)-N4-methyl-5-(trifluoromethyl)pyrimidine-2,4-diamine] | < 50 nM
CCNc1nc(Nc2cccc3c2cnn3CC(C)(C)O)nc2[nH]cc(Cl)c12 [Example 176, 1-[4-[[5-chloro-4-(ethylamino)-7H-pyrrolo[2,3-d]pyrimidin-2-yl]amino]indazol-1-yl]-2-methyl-propan-2-ol] | < 50 nM
C[C@@]1(n2ncc3c(Nc4ncc(C(F)(F)F)c(NC5CC5)n4)cccc32)CCOC1=O [Example 166, (R)-3-(4-((4-(cyclopropylamino)-5-(trifluoromethyl)pyrimidin-2-yl)amino)-1H-indazol-1-yl)-3-methyldihydrofuran-2(3H)-one] | < 50 nM
CCNc1nc(Nc2cccc3c2cnn3CCS(C)(=O)=O)ncc1C(F)(F)F [Example 186, N^4-ethyl-N^2-[1-(2-methylsulfonylethyl)indazol-4-yl]-5-(trifluoromethyl) pyrimidine-2,4-diamine] | < 50 nM
CCOc1nc(Nc2cccc3c2cnn3CC(F)F)nc2[nH]cc(Cl)c12 [Example 165, 5-chloro-N-[1-(2,2-difluoroethyl)indazol-4-yl]-4-ethoxy-7H-pyrrolo[2,3-d]pyrimidin-2-amine] | < 50 nM
CNc1nc(Nc2ccc3nn(C)cc3c2)ncc1C(F)(F)F [Example 74, N4-methyl-N2-(2-methyl-2H-indazol-5-yl)-5-(trifluoromethyl)pyrimidine-2,4-diamine] | < 50 nM
CS(=O)(=O)n1ncc2c(Nc3ncc(C(F)(F)F)c(NC4CCC4)n3)cccc21 [Example 150, N^4-cyclobutyl-N^2-(1-methylsulfonylindazol-4-yl)-5-(trifluoromethyl)pyrimidine-2,4-diamine] | < 50 nM
CNc1nc(Nc2cccc3c2cnn3S(=O)(=O)C2CC2)ncc1C(F)(F)F [Example 33, N2-(1-(cyclopropylsulfonyl)-1H-indazol-4-yl)-N4-methyl-5-(trifluoromethyl)pyrimidine-2,4-diamine] | < 50 nM
CNc1nc(Nc2cc(F)c3cn[nH]c3c2)ncc1C(F)(F)F [Example 6, N2-(4-fluoro-1H-indazol-6-yl)-N4-methyl-5-(trifluoromethyl)pyrimidine-2,4-diamine] | < 50 nM
CNc1nc(Nc2cc3[nH]ncc3cc2OC)ncc1C(F)(F)F [Example 3, N2-(5-methoxy-1H-indazol-6-yl)-N4-methyl-5-(trifluoromethyl)pyrimidine-2,4-diamine] | < 50 nM
Cn1ncc2c(Nc3ncc(Cl)c(NC4CC4)n3)cccc21 [Example 71, 5-chloro-N4-cyclopropyl-N2-(1-methyl-1H-indazol-4-yl)pyrimidine-2,4-diamine] | < 50 nM
CNc1nc(Nc2ccc(C)c3[nH]ncc23)ncc1C(F)(F)F [Example 26, N4-methyl-N2-(7-methyl-1H-indazol-4-yl)-5-(trifluoromethyl)pyrimidine-2,4-diamine] | < 50 nM
CC(C)Nc1nc(Nc2cccc3c2cnn3C(C)(C)C#N)ncc1C(F)(F)F [Example 108, 2-(4-((4-(isopropylamino)-5-(trifluoromethyl)pyrimidin-2-yl)amino)-1H-indazol-1-yl)-2-methylpropanenitrile] | < 50 nM
CNc1nc(Nc2ccc(F)c3c2cnn3CC#N)ncc1C(F)(F)F [Example 85, 2-(7-fluoro-4-((4-(methylamino)-5-(trifluoromethyl)pyrimidin-2-yl)amino)-1H-indazol-1-yl)acetonitrile] | < 50 nM
CNc1nc(Nc2c(C)[nH]c3ccccc23)ncc1C(F)(F)F [Example 63, N4-methyl-N2-(2-methyl-1H-indol-3-yl)-5-(trifluoromethyl)pyrimidine-2,4-diamine] | 50 to 200 nM
CNc1nc(Nc2cccc3cnn(C)c23)ncc1C(F)(F)F [Example 76, N4-methyl-N2-(1-methyl-1-indazol-7-yl)-5-(trifluoromethyl)pyrimidine-2,4-diamine] | ≥ 200 nM
Cc1n[nH]c2nc(Nc3cccc4c3cnn4CC(C)(C)O)nc(NC3CC3)c12 [Example 204, 1-[4-[[4-(cyclopropylamino)-3-methyl-1H-pyrazolo[3,4-d]pyrimidin-6-yl]amino]indazol-1-yl]-2-methyl-propan-2-ol] | < 50 nM
CS(=O)(=O)CCn1ncc2c(Nc3ncc(C(F)(F)F)c(NC4CCC4)n3)cccc21 [Example 163, N^4-cyclobutyl-N^2-(1-(2-(methylsulfonyl)ethyl)-1H-indazol-4-yl)-5-(trifluoromethyl)pyrimidine-2,4-diamine] | < 50 nM
CNc1nc(Nc2ccc(C3CCOCC3)c3c2cnn3CC#N)ncc1C(F)(F)F [Example 89, 2-(4-((4-(methylamino)-5-(trifluoromethyl)pyrimidin-2-yl)amino)-7-(tetrahydro-2H-pyran-4-yl)-1H-indazol-1-yl)acetonitrile] | < 50 nM
